# Reference: US6664065B2, “Measuring viral reverse transcriptase activity” (priority 2000, dated 2003)
# Assays:
# rHIV RT = target: T1, rHIV RT (Human immunodeficiency virus type 1 group M subtype B, UniProt P03366); assay: TaqMan real-time RT-PCR assay of rHIV RT inhibition by a test agent; type: biochemical, HIV
# T1 construct: rHIV RT—Worthington Biochemical catalogue No. 5006 (500 U at 12.5 U/μL); purchased Worthington Biochemical 5006
# Experimental: In this regard, oligo dT is used as a template for rHIV RT. Oligo dT is complementary to the polyadenylated RNA-component of the total human heart RNA which present in the reaction mixture. rHIV RT forms cDNA from the oligo dT/RNA complex in the presence of dNTP nucleotides.
# Thus, the temperature cycling conditions for rHIV RT were about 25° C. for 10 minutes, followed by about 37° C. for 60 minutes, and finally 95° C. for 5 minutes. At 95° C., the activity of rHIV RT was destroyed.
# In this context, the test agent preferably is added when the template RNA, the primer which is complementary to the template RNA, and the dNTPs are mixed in the presence of the sample. Accordingly, although the sample may contain active RT, cDNA transcription by the RT can be inhibited by the presence of the test agent in the reaction mixture.
# The inhibiting properties of the test agent are reflected in an increase in CT value for the sample which contains the test agent.
# An rHIV RT solution (Master Mix solution)was prepared which contained 5 μL 10× RT reaction buffer, 11 μL 25 mM MgCl2, 10 μL 10 mM dNTP working stock solution, 2.5 μL 50 μM oligo dT, 1 μL RNAse inhibitor and 1.25 μL rHIV RT. The total volume of the Master Mix solution was 30.75 μL.
# were added to 30.75 μL of the Master Mix solution. Thus, the reaction mixture contained 50 μL total solution volume.
# The controls for the present example included a positive control containing 18.25 μL water plus 1 μL RNA, and a negative control containing 19.25 μL water. […]
# taq polymerase = target: T2, taq polymerase (Thermus aquaticus, UniProt P19821); assay: AZT included in the PCR reaction mixture in place of dT (TaqMan PCR step); type: biochemical
# T2 construct: purchased Perkin Elmer PE 4304437
# T2 sequence (P19821 whole entry): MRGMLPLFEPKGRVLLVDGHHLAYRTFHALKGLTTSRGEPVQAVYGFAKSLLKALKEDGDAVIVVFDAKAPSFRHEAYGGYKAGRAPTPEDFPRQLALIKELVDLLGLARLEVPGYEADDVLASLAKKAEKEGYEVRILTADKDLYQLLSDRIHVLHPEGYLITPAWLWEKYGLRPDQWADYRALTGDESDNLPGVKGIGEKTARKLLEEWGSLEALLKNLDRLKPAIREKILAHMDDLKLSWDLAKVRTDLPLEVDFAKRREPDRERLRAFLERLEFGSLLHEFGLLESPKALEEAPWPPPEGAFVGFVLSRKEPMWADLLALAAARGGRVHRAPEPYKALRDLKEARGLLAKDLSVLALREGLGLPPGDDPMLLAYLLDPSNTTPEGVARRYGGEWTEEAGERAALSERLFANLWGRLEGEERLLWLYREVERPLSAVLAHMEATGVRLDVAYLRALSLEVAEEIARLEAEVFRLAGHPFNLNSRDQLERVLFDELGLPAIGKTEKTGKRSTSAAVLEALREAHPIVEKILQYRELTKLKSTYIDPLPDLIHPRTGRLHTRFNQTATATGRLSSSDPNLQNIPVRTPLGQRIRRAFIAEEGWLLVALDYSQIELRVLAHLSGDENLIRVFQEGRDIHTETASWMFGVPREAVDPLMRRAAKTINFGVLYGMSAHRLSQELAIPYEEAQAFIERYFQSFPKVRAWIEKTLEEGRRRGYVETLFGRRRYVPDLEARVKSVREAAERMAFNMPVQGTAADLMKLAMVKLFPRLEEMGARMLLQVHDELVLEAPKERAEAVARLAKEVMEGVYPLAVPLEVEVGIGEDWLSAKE
# Source text: Next, an aliquot of the cDNA formed in the RT step above is brought into the Taqman® instrument (PE Model 7700) and put into a reaction mixture which contains Taqman® Universal master mix (taq polymerase in buffer), beta actin-specific forward primer, beta actin-specific reverse primer, and beta actin Taqman® probe. The PCR step takes place in the instrument under standard Taqman® PCR conditions. Although, as described above, the present method is depicted as a two test tube reaction, one skilled in the art will realize that these steps can be combined in a single reaction vessel.
# The transcriptase reaction was initiated by placing the reaction mixture in a MWG Thermocycler, or equivalent, under thermocycling conditions at 25° C. for 10 minutes, then at 37° C. for 60 minutes, and finally at 95° C. for 5 minutes. This final thermocycling step deactivated the rHIV RT. Next 5 μL of the post-thermocycle RT reaction mixture, which presumably contained cDNA, were added to 45 μL of the Master Mix solution. The Master Mix Solution contained 25 μL 2×Taqman Universal Master Mix, 5 μL beta Actin Forward Primer, 5 μL Beta Actin Reverse Primer and […]. Thus, the total PCR reaction mixture contained 50 μL. […]
# [1] = AZT 1.25 mM down to 250 μM in RT reaction mixture with a fixed concentration of dT, all concentrations
structure (smiles),measurement,setting,value
Cc1cn([C@H]2C[C@H](N=[N+]=[N-])[C@@H](CO)O2)c(=O)[nH]c1=O [AZT],amplification of cDNA after the PCR step,rHIV RT; AZT 250 μM to 1.25 mM added to the rHIV-RT reaction mixture in place of dT,no amplification of cDNA was observed
same,inhibition of activity,rHIV RT; [1],100%
same,observed CT,rHIV RT; [1],greater than 40 cycles
same,amplification of the cDNA after the PCR step,taq polymerase,NO amplification
